Results reported in a melting point compilation (Tetko et al.; mined from patent text by program, amines drawn as free bases though some values may be those of a salt).

melting point [°C] | Structure (SMILES)
118 to 125 | Cc1cc(N)c(C)c(Cl)c1Oc1ccc(Cl)c2ccccc12
110 | COc1nc(NC(COC(=O)NC(C)C)C(C)(C)C)nc(OC)c1[N+](=O)[O-] (stereo unspecified)
135 to 137 | CCn1c(Br)cc2c(C)nc3c(Br)cnn3c21
155 to 157 | CC(C)CNC(=O)c1sc(Oc2ccc3c(c2)OCO3)c2c1CCc1cnn(C)c1-2
185 to 186 | O=C(O)C1CCCc2c(n(Cc3ccc(Cl)cc3)c3ccc(F)cc23)C1 (stereo unspecified)
80 to 82 | CCNC(=O)c1cccc(F)c1[Si](C)(C)C
133 to 134 | CCOC(=O)c1cc2c(C)cccc2n1CCC(=O)O
100 to 102 | Cc1c(C(=O)CCl)c(C)n(C)c1C(=O)c1ccc(Cl)cc1Cl
73 to 74.5 | CCc1cc2cc(OC)c(Cl)c(Cl)c2s1
79 to 80 | C=CCc1ccc(OCCC(C)C)c2c(=O)cc(C(=O)O)oc12
142 to 144 | O=C(Nc1ccc(OCCN2CCOCC2)c2ccccc12)c1cc(F)cc(N2CCCCCC2)c1
295 to 297 | COC[C@H](C)NC(=O)c1c[nH]c2ncc(-c3nn(C)c4cc(F)c(F)cc34)nc12
176 to 178 | CC(=O)N(C)Cc1ccc(CCn2cnc3cc(-c4ccc(Cl)cc4)sc3c2=O)cc1
204 to 206 | COCOc1cc(F)ccc1-c1cc(-c2cccc(N)c2)c(C#N)c(NC(=O)c2ccco2)n1
180 to 182 | C#CC[C@H](c1nc2cccnc2c(=O)n1Nc1ccccc1)N(CCCN)C(=O)c1cc(F)c(F)c(F)c1F
250 to 255 | CC(=O)Nc1ccc2nc3n(c2c1)CCC3

melting point [°C] | Structure (SMILES)
67.7 | COn1c(C)nc2cc(C(=O)c3ccccc3)ccc21
107 to 112 | COCc1c(C=NO)nc(Oc2nccc3ccccc23)c2[nH]c3ccccc3c12
157 to 159 | CCn1c(COC(=O)NC(=O)C(C)(C)C)nc(C(C)C)c1Sc1cc(Cl)cc(Cl)c1
140 to 142 | CCOCn1cc(F)c(=O)n(C(=O)c2cccc(C(=O)Oc3nc(OC(=O)c4ccc(Cl)cc4Cl)ccc3C#N)c2)c1=O
253 to 254 | CSc1cc2c(cc1C(F)(F)F)N(C(=O)Nc1ccc(-c3csc(-c4ccncc4)n3)cc1)CC2
73 to 76 | Cc1cccc(-c2[nH]c(C(C)C)nc2-c2cccc(-c3cccs3)c2)n1
134 to 135 | COC(=O)c1ccccc1-c1nc(COc2ccc(COc3nn(-c4ccccc4)cc3C=O)cc2OC)c(C)o1
109 to 115 | COc1ccc(-c2c(N(C)C(C)C)c(=O)c2=O)cc1
131 | CCc1nn(C(=O)NS(=O)(=O)c2ccccc2C(=O)OC)c(=O)n1C
104 to 105 | CC(C)(C)OC(=O)N1CC=C(c2ncccc2N)CC1
252 to 254 | Cn1nc(-c2c(Nc3ccccc3)nc(N)nc2-c2ccccc2)ccc1=O
168 to 170 | COc1ccc(C(=O)Nc2ccccc2)cc1Nc1cccc(Cl)c1
148 to 149 | CCOCOc1cc(C)ccc1-c1cc(-c2cccc([N+](=O)[O-])c2)c(C#N)c(N)n1
159 to 160 | COc1cc(C(=O)NS(=O)(=O)c2ccccc2)ccc1CBr
196 to 197 | CC(=O)Nc1c(-c2ccc(Cl)cc2)c2ccccc2n1C

Further lines, the molecule ahead of its results:

Structure (SMILES) | melting point [°C]
CCCCNc1ccc(S(=O)(=O)N2CC(N(Cc3ccccc3)C(=O)OC(C)(C)C)C2)cc1 | 115 to 116
N=C(N)c1ccc2cc(OC(=O)C3CC3)ccc2c1 | 214 to 217
O=C(NCCCCN1CCC(c2csc3ccccc23)CC1)c1ccc(-c2ccc(C(F)(F)F)cc2)cc1 | 264
CC(=O)OC1CSC(Oc2ccc(-c3cnoc3C)nc2)C(OC(C)=O)C1OC(C)=O (stereo unspecified) | 165
[N-]=[N+]=NC(=O)c1ccc(-c2ccc(C(F)(F)F)cc2)s1 | 97
O=C1OCCCC1=Cc1ccccc1OCC(O)CN1CCC(c2ccc3ccccc3c2)CC1 (stereo unspecified) | 142 to 144
CC(C)N(Cc1cccs1)C(=O)C12CC3CC(CC(C3)C1)C2 | 156 to 158
CC1(c2ccccc2)Cc2cc(OCC(=O)O)c(Cl)c(Cl)c2C1O (stereo unspecified) | 160 to 162
N#CC(c1ccccc1)(c1ccccc1)[C@H]1CCCN(CCc2ccc(CO)cc2)C1 | 110 to 114
COC(=O)C1CC(O)C(=O)N1 (stereo unspecified) | 85 to 86
CC1CC(=O)c2cc(N)c(F)cc2O1 (stereo unspecified) | 135 to 138
C#CC(O)(c1ccccc1)c1ccc([N+](=O)[O-])cc1 (stereo unspecified) | 88 to 89
CCCCC1(O)CCC2C3CCC4=CC(=O)CC(C)C4(C)C3CCC21C (stereo unspecified) | 85
C=C1C(NC(=O)C(F)(F)F)CC(OC)OC1C (stereo unspecified) | 160 to 162
c1ccc(-c2ccc3c(CCN4CCCCC4)c(-c4ccccc4)[nH]c3c2)cc1 | 129 to 131
CCC(=O)C1=C(O)CC(c2c(C)cc(C)cc2C)CC1=O (stereo unspecified) | 86 to 88
O=[N+]([O-])c1ccc(CCn2cccn2)cc1 | 92 to 93
Cc1c(CO)oc2ccc(Cl)cc12 | 112 to 113
C=CCn1c(=O)[nH]c(=O)c2[nH]c(C34CC5CC(CC3C5)C4)nc21 | > 270
O=C1C=c2c(c3c(c4[nH]c5ccccc5c24)Cc2ccccc2-3)=N1 | 275 to 280
CC(C)(C)OC(=O)N[C@@H]1CN(C2CCCCC2)c2ccccc2NC1=O | 156 to 159
Cc1nnc2n1-c1sccc1C(c1ccccc1)=NC2 | 224 to 226
O=[N+]([O-])c1ccc(NCCCn2ccnc2)cc1 | 130 to 132
CN(C(=O)NCCCl)c1ccc(C(O)(C(F)(F)F)C(F)(F)F)cc1 | 120 to 121

Structure (SMILES) | melting point [°C]
CCCCCCCCSc1nc(SCCCCCCCC)nc(-c2cc(C)c(O)c(C)c2)n1 | 75 to 76
NC(=CC(=O)c1ccncc1)C1CC1 | 124 to 125
CC(C)N1C(=O)N(c2ccc(C#N)c(C(F)(F)F)c2)C(=O)C1(CO)CO | 172 to 173
CN(c1ccncc1)c1csc2ncccc12 | 143 to 145
CC(CNC(=O)OC(C)(C)C)n1nnnc1S (stereo unspecified) | 156 to 158
CCCCn1cnnc1SC(=O)c1ccoc1 | 102 to 105
O=C(CCCCCBr)c1c[nH]c2ccccc12 | 150 to 151
COC(=O)C(=C1SCCCN1C(=O)C(Cl)Cl)[N+](=O)[O-] | 122
COc1ccc(-c2cc3ccc(C)cc3[nH]2)cc1 | 220
COc1ccc([C@]2(C)C=Cc3cc(OC)ccc3[C@H]2C=O)cc1 (relative stereo) | 127
CC1(C)CC(OC(=O)CCC(=O)OC2CC(C)(C)NC(C)(C)C2)CC(C)(C)N1 | 118
Cc1ccc(CSCCC(=O)O)cc1 | 75.8
COc1ccc(N2CCN(C[C@@H](O)COc3cccc(-c4noc5ccsc45)c3)CC2)cc1 | 110 to 113
CC(C)NC(=O)c1ccc(N2CCC(N3C(=O)OCc4ccccc43)CC2)c(S(C)(=O)=O)c1 | 240 to 242
Cc1cccc2sc(S)nc12 | 161 to 173
CC(=O)Nc1ccc(Oc2c(NCc3ccco3)cc(C(=O)O)cc2S(=O)(=O)NC(C)=O)cc1 | 250
Cc1nc2ccccn2c(=O)c1CCN1CC[C@H](Nc2nc3ccccc3n2Cc2ccc(F)cc2)[C@H](C)C1 (relative stereo) | 161
CCCCCCCCCCCCCCCCCCOC(=O)CCCCCCCCCCCCCCCCC | 47 to 55
COc1ccc2c(c1)CC(Nc1ccc(O)cc1)C2 (stereo unspecified) | 144 to 146
CC(C)(C)OC(=O)N[C@@H](CO)C(=O)N[C@@H](CCC(=O)OCc1ccccc1)C(=O)OCc1ccccc1 | 93 to 95
CCCn1c2c(ccc1=O)C(NCCc1ccc(Cl)c(Cl)c1)CCC2 (stereo unspecified) | 105 to 107
CS(=O)(=O)Nc1ccc(Cl)c(F)c1 | 109 to 111
CCc1nc2c(N)nc(C)c(C)c2n1NC1CCCCC1 | 190 to 192
O=C(O)C[C@@H]1Cc2cccc3c2[C@@H](CCC3)C1 (relative stereo) | 115 to 116

Structure (SMILES) | melting point [°C]
NS(=O)(=O)c1sccc1C(F)=C(F)C(F)(F)F | 108 to 111
O=C(NC1C2CC3CC(C2)CC1C3)c1cc(-c2ccc(Cl)cc2)n(-c2ccc(Cl)cc2Cl)n1 (stereo unspecified) | 203
O=C(c1ccc2c(c1)OCCOCCOCCOCCOCCO2)c1ccccn1 | 78 to 80
O=C1Cc2cc([N+](=O)[O-])ccc2Sc2cc(Br)ccc21 | 242 to 245
CCCCOC1OC(CO)C(O)C(O)C1(O)N(Cc1cccc(C)c1C)C(=O)N(CCCl)N=O (stereo unspecified) | 90 to 92
Cc1oc(-c2ccccc2)nc1COc1ccc2cc(/C=C/C=O)oc2c1 | 132 to 133
O=C(O)COc1c(Br)cc(C(=O)c2c(CCc3ccccc3)oc3ccccc23)cc1Br | 163 to 164
Cc1ccc2[nH]c3c(c2c1)C(C(=O)OCc1ccccc1)CCC3 (stereo unspecified) | 115 to 117
CCCCCC(CCCCC)n1c(=O)sc2c(=O)[nH]c(N)nc21 | > 195
COc1ccc(CCN(C)CCCCc2ccc(NC(=O)c3cccc4c(=O)c5ccccc5oc34)cc2)cc1OC | 102
Cc1cc(F)cc([N+](=O)[O-])c1N | 111 to 113
COc1ccc(CC(=O)N2CCC3(CC2)Cc2ccccc2O3)cc1 | 87 to 88
Fc1c(Cl)cccc1/C=C/c1noc(C(Cl)(Cl)Cl)n1 | 37 to 38
Cc1ccc2c(c1)CC(=O)N2c1c(F)cccc1Cl | 137 to 140
CCCCCCCCC1C=CC(/C(C)=C/c2ccc(C(=O)O)o2)=C2N=C3CCCCC3=C21 (stereo unspecified) | 152 to 154
CC(=O)NCc1c(C)cc(CCl)cc1C | 193 to 194
COC1(c2cccc(S(=O)(=O)c3ccc4c(c3)oc(=O)n4C)c2)CCOCC1 | 163 to 165
Cc1nc(CNC=O)ccc1OCc1ccccc1 | 67 to 68
Cc1nn(-c2ccc(Cl)nn2)c(C)c1[N+](=O)[O-] | 164 to 167
O=S(=O)(Nc1cccc2c(O)cccc12)N1CCOCC1 | 220 to 223
COc1ccc(C(=CC(=O)N2CCOCC2)c2ccc(-c3ccccc3)cc2)cc1OC | 127 to 128
N#CCNC(=O)Cc1ccccc1 | 87 to 91
